Experimental data from US9101671B2, “Methods and compositions related to clot binding compounds” (Sanford-Burnham Medical Research Institute, priority 2007, dated 2015).
Where no end group is shown, it is not given here.

How the values were obtained:
[1] = test system: tumor vessels; experiment: Nanoparticle-induced blood clotting in vessels (fibrin(ogen)/CD31 staining, microscopy); format: in vivo, mice
Method: (§1) Mice bearing MDA-MB-435 xenografts were injected with Ni-liposomes and CREKA-SPIO nanoparticles as described in the legend to FIG. 2. The mice were perfused 6 hours after the nanoparticle injection and tissues were collected. (A) Upper panels: Co-localization of nanoparticle fluorescence with CD31 staining in blood vessels; Middle panels: Co-localization of nanoparticle fluorescence and anti-fibrin(ogen) staining in tumor blood vessels. Inset—an image showing CREKA-SPIO distributed along fibrils in a tumor blood vessel; Lower panels: Lack of co-localization of nanoparticle fluorescence with anti-CD41 staining for platelets. (B) Intravital confocal microscopy of tumors using DiI-stained red blood cells as a marker of blood flow. The arrow points to a vessel in which stationary erythrocytes indicate obstruction of blood flow. Blood flow in the vessel above is not obstructed. Six successive frames from a 1-min movie (Movie 2 in Supplementary Material) are shown. (C) CREKA-coated liposomes co-localize with fibrin in tumor vessels. The results are representative of 3 independent experiments. Magnification: A and C, 600×, B, 200×.
(§2) Mice bearing MDA-MB-435 human breast cancer xenografts were intravenously injected with PBS or a bolus of 800 U/kg of heparin followed 120 min later by Ni-liposomes (or PBS) and CREKA-SPIO (or control nanoparticles). The mice received additional heparin by intraperitoneal injections (a total of 1000 U/kg) or PBS throughout the experiment. (A) Tumors were removed 6 hours after the nanoparticle injection, and magnetic signal in the tumor after different treatments was determined with SQUID. Aminated dextran SPIO served as a particle control (control SPIO). […] The magnetization values were normalized to dry weight of the tissue. Results from 3 experiments are shown. (B) Quantification of heparin effect on clotting in blood vessels. Mice were pretreated with PBS (white bars) or heparin (black bars) as described above, followed by Ni liposomes/CREKA-SPIO nanoparticles. Three sections from two tumors representing each treatment were stained with anti-CD31 for blood vessels, and the percentage of vessels positive for fluorescence and fluorescent clots was determined. […] (C) A representative example of the appearance of CREKA-SPIO particles in tumor vessels of mice treated with heparin. (D) Near-infrared imaging of mice that received Ni-liposomes followed by Cy7-labeled CREKA-SPIO with or without heparin pretreatment. The images were acquired 8 hours after the injection of the CREKA-SPIO particles using an Odyssey 2 NIR scanner (Li-COR Biosciences, Lincoln, Nebr.). The images shown are composites of 2 colors, red (700 nm channel, body and chow autofluorescence) and green (800 nm channel, Cy7). Arrows point to the tumors, arrowheads to the liver. Note the strong decrease in signal from the tumor in the heparin-pretreated mouse. A representative experiment out of 3 is shown.
The low magnification (40×) was used to produce these images because only blood vessels in which clotting had concentrated the CREKA-SPIO fluorescence are visible at this magnification. […]
For intravenous injections, the animals were anesthetized with intraperitoneal Avertin, and liposomes (2 μmol DSPC) and/or nanoparticles (1-4 mg Fe/kg body weight) were injected into the tail vein. The animals were sacrificed 5-24 h post-injection by cardiac perfusion with PBS under anesthesia, and organs were dissected and analyzed for particle homing. […]

[2] = Nanoparticle clearance (plasma circulation half-life); format: in vivo, mice
[3] = test system: human plasma clots; experiment: Nanoparticle binding to human plasma clots in vitro
Method: (§3) Phage binding to clotted plasma proteins was determined as described (Pilch 2006). CREKA-SPIO and control SPIO were added to freshly formed plasma clots in the presence or absence of free CREKA peptide. After 10 min incubation, the clots were washed 4 times in PBS, transferred to a new tube and digested in 100 μl concentrated nitric acid. The digested material was diluted in 2 ml distilled water and the iron concentration was determined using inductively coupled plasma-optical emission spectroscopy (ICP-OES, PerkinElmer, Norwalk, Conn.).

[4] = test system: platelets; experiment: Role of platelets in nanoparticle homing; format: in vivo, mice; conditions: platelet depletion with anti-CD41 monoclonal antibody
Method: (A). Blood was drawn 5 min post-injection of 4 mg/kg of CREKA-SPIO into mice and a 50 μl aliquot was run through a magnetic column. Bound CREKA-SPIO particles were eluted form the column, concentrated on a slide, and stained with anti-CD41 antibody. Some of the particles appear to be associated with platelets. (B). A low-magnification image (40×) showing CREKA-SPIO homing and clot formation in a tumor from a platelet-depleted mouse. Platelet depletion was accomplished by treating mice with 0.1 mg of an anti-CD41 monoclonal antibody as described (Van der Heyde and Gramaglia (2005)). The mice subsequently received Ni-liposomes/CREKA-SPIO as described in the legend of FIG. 2.

[5] = test system: tumor blood vessels; experiment: Intravital confocal microscopy of tumor blood flow; format: in vivo, mice; conditions: 4 mg/kg i.v.; Ni-liposome pre-injection; DiI-labeled erythrocytes as flow marker
Method: as §1
Tumor blood flow in MDA-MB 435 xenograft-bearing mice was observed by intravital microscopy. Mice were pre-injected with Ni-liposomes and 5×10^8 of DiI-labeled erythrocytes. […] Movies were recorded at 10 min intervals up to 120 min post-injection.

[6] = test system: MDA-MB-435 breast cancer xenografts; experiment: Tumor homing and tissue distribution of intravenously injected particles (fluorescence microscopy); format: in vivo, mice
Method: CREKA-SPIO particles were intravenously injected (4 mg Fe/kg) into Balb/c nude mice bearing MDA-MB-435 human breast cancer xenograft tumors measuring 1-1.5 cm in diameter. The mice were sacrificed by perfusion 5-6 hours later and tissues were examined for CREKA-SPIO fluorescence (green). Nuclei were stained with DAPI (blue). (A) Distribution of CREKA-SPIO in tissues from MDA-MB-435 tumor mice that received 2 hours earlier an injection of PBS (A, upper panels) or Ni/DSPC/CHOL liposomes (Ni-liposomes) containing 0.2 μmol Ni in 200 μl of PBS (A, lower panels). (B) Plasma circulation half-life of CREKA-SPIO following different treatments. At least 4 time points were collected. Data were fitted to mono-exponential decay using Prizm software (GraphPad, San Diego, Calif.), and the half-life values were compared in unpaired t-test (***p<0.0001, n=10). (C) Accumulation of CREKA-SPIO nanoparticles in tumor vessels. Mice were injected and tissues collected as in panel A. Fluorescent intravascular CREKA-SPIO particles overlap with iron oxide viewed in transmitted light. Magnification: 600×. (D) Control organs of Ni-liposome/CREKA-SPIO-injected mice. Occasional spots of fluorescence are seen in the kidneys and lungs. […] Representative results from at least 3 independent experiments are shown. Magnification A and D, 200×; C, 600×.
For intravenous injections, the animals were anesthetized with intraperitoneal Avertin, and liposomes (2 μmol DSPC) and/or nanoparticles (1-4 mg Fe/kg body weight) were injected into the tail vein. The animals were sacrificed 5-24 h post-injection by cardiac perfusion with PBS under anesthesia, and organs were dissected and analyzed for particle homing. To suppress liver macrophages, mice were intravenously injected with liposomal clodronate suspension (100 μl per mouse), and the mice were used for experiments 24 hours later.

[7] = test system: mouse plasma clots; experiment: Nanoparticle binding to mouse plasma clots in vitro
Method: as §3

[8] = test system: MDA-MB-435 human breast cancer xenografts; experiment: Tumor magnetization by SQUID magnetometer; format: in vivo, mice
Method: as §2, with “The images were acquired 8 hours after the injection of the CREKA-SPIO particles using an Odyssey 2 NIR scanner (Li-COR Biosciences, Lincoln, Nebr.). The images shown are composites of 2 colors, red (700 nm channel, body and chow autofluorescence) and green (800 nm channel, Cy7). Arrows point to the tumors, arrowheads to the liver. Note the strong decrease in signal from the tumor in the heparin-pretreated mouse. A representative experiment out of 3 is shown.” left out

[9] = plain liposomes as decoy particles, injected before
[10] = after Ni-liposome pre-treatment
[11] = intravenous injection, no decoy pretreatment

In the case of “CREKA-SPIO: Fluorescein-labeled CREKA coupled onto 50 nm superparamagnetic, amino dextran-coated iron oxide nanoparticles; at least 8,000 peptide molecules per particle (Fluorescein-CREKA; not fully specified; printed as fluorescein-CREKA; also: coupled to amino dextran-coated iron oxide nanoparticle)”, the “tumor vessel lumens filled with fluorescent masses (occlusion)” value ([1]; after liposome pretreatment) is reported as “up to 20%”, the “intravascular clotting, effect of heparin” value ([1]; heparin pretreatment) is reported as “essentially eliminated the intravascular clotting” and the “number of vessels with nanoparticles bound to the vessel walls, effect of heparin” value ([1]; heparin pretreatment) is reported as “did not significantly reduce”. The “colocalization of fibrin(ogen) staining and particle fluorescence in liver vessels” value ([1]; liver) was “no colocalization”, the “clotting in kidneys and lungs (non-RES tissues)” value ([1]; low magnification images) was “no clotting in these tissues, with the exception of very rare clots in the kidneys” and the “prolongation in particle half-life” value ([2]; RES macrophages in the liver depleted with liposomal clodronate) was ~5 fold. For the same substance, the blood half-life [2, 9] was “prolonged the blood half-life”, the “prolongation of half-life in the blood” value ([2]; pretreatment with intravenously injected Ni-liposomes) was “about 5 factor” and the “binding to plasma clots” value [3] was “bound to mouse and human plasma clots”. For the same substance, the “effect of thrombocytopenia on homing to MDA-MB-435 tumors” value [4] was “no noticeable effect”, the “clot formation and blood flow in tumor blood vessels” value [5] was “time-dependent clot formation and obstruction of blood flow” and the tumor homing ([6]; Ni-liposome pretreatment 5 min or 48 h prior to injection) was “greatly increased the tumor homing”. The “accumulation in the spleen” value [6, 10] was “unchanged or even enhanced”, the “particles in the liver” value [6, 10] was “Fewer particles” and the accumulation in tumor [6, 11] was “did not accumulate effectively”. For the same substance, the “particles in reticuloendothelial system (RES) tissues” value [6, 11] was “high concentration of particles”, the tumor homing [6, 9] was “prolonged the blood half-life and tumor homing” and the “particles in other organs” value ([6]; whether Ni-liposomes were used or not) was “minor amounts of CREKA-SPIO particles or no particles at all”. The “binding to plasma clots” value [7] was “bound to mouse and human plasma clots”, the “greater accumulation in tumor, Ni-liposome-pretreated compared to PBS-pretreated mice” value ([8]; SQUID and fluorescence signal, tumors removed 6 hours after injection) was “about 6 fold” and the “reduction of tumor accumulation of nanoparticles by heparin” value ([8]; heparin injected prior to CREKA-SPIO, SQUID) was “more than 50%”.
